Where two headings read alike, the source gives them in different places.
How the values were obtained:
HepG2 cells = assay: Triglyceride (TAG) measurement assay, one week steatosis model; type: cell-based, human; conditions: for activity at 10 µM: Homo sapiens
Method: (§1) HepG2 wild type cells were purchased from genome engineering company Synthego. Cells were maintained with Roswell Park Memorial Institute growth media, RPMI, 1640 (R2405, Sigma-Aldrich) and supplemented with 10% fetal bovine serum (FBS, F7524, Sigma-Aldrich), 1% penicillin-streptomycin (P/S, P4333, Sigma-Aldrich). Steatosis induction media was prepared as high glucose Dulbecco's Modified Eagle Media (DMEM, D0819, Sigma-Aldrich) with 10% FBS, 1% P/S media supplemented with 10 μg/ml insulin (I9278, Sigma-Aldrich), and 10 μM T0901317 (T2320, Sigma-Aldrich). HepG2 cells were seeded 6×10^4 cells per well for 96-well plate and 1×10^6 cells per well for 6-well plate. HepG2 cells were incubated with steatosis induce media (SM) for one week by 3 day+2 day+2 day with total three times media exchange.
HepG2 cells were seeded at 6×10^4 cells per well into 96 well plate and induced steatosis for one week with 10 μM of target drugs. After steatosis induction, cells were washed with 200 μl of phosphate buffered saline (PBS) and triglyceride contents was measured by Triglyceride Assay Kit—Quantification (ab65336, Abcam) following manufacturer's instruction. Optical density (O.D) values were detected with microplate reader at 570 nm (Hidex Sense Beta Plus).
(§2) HepG2 cells were seeded at 60,000 cells per well in 96 well plate. Using steatosis induce media, the cells were treated with 10 μM of target drugs for one week. The media was changed 3 times at day 0, day 3 and day 5. TAG assay was performed using MAK266-1KT SDS Triglyceride Quantification Colorimetric kit and cell viability analysis was performed using MTT assay.

[1] = MTT cell viability after one week steatosis (ranking of target molecules); type: cell-based, human; conditions: human, HepG2 cells (wild type); HepG2, 10 μM, one week steatosis induce media, MTT; Control 100.00
Method: as §1, §2

[2] = 168 h, HepG2, 10 μM, one week steatosis induce media, Control 100.00, read-out: TAG (%)
[3] = HepG2, 168 h, ratio between TAG content and cell viability, Control 100.0, read-out: TAG/cell viability

Structure (SMILES)	activity at 10 µM (HepG2 cells; [2])	activity at 10 µM (HepG2 cells; [3])	viability at 1 week, 10 µM [1]	TAG content/cell viability ratio lower than JNK-IN-5A (HepG2 cells)	ratio between TAG content and cell viability (HepG2 cells)	TAG/cell viability (HepG2 cells; ratio as printed in text with %)
N#Cc1c(NC(=O)c2cccc3ccccc23)sc2c1CCCCC2 [PKL-A56, N-(3-cyano-5,6,7,8-tetrahydro-4H-cyclohepta[b]thiophen-2-yl)-1-naphthamide]	35.6%	62.5%	57%	–	–	–
CC(=O)N1CCc2c(sc(NC(=O)c3cccc4ccccc34)c2C#N)C1 [PKL-A114]	14.1%	28.6%	49.4%	–	–	–
CCOC(=O)CN1CCc2c(sc(NC(=O)c3cccc4ccccc34)c2C#N)C1 [PKL-A118]	62.1%	68.2%	91%	–	–	–
COc1ccc(C(=O)Nc2sc3ccccc3c2C#N)c2ccccc12 [PKL-A149]	30.8%	60.5%	50.9%	–	–	–
COc1cccc(NC(=O)N2CCc3c(sc(NC(=O)c4cccc5ccccc45)c3C#N)C2)c1 [PKL-A151]	11.5%	18.7%	61.6%	more than 3 times	low ratio between TAG content and cell viability	–
Cc1ccccc1NC(=O)N1CCc2c(sc(NC(=O)c3cccc4ccccc34)c2C#N)C1 [PKL-A153]	13.2%	31.2%	42.5%	–	–	–
N#Cc1c(NC(=O)c2cccc3ccccc23)sc2c1CCN(C(=O)Nc1ccccc1[N+](=O)[O-])C2 [PKL-A154]	13.9%	30.3%	46%	–	–	–
N#Cc1c(NC(=O)c2cccc3ccccc23)sc2c1CCN(C(=O)Nc1ccccc1Br)C2 [PKL-A157]	12.8%	35.1%	36.5%	–	–	–
Cc1ccc(F)c(NC(=O)N2CCc3c(sc(NC(=O)c4cccc5ccccc45)c3C#N)C2)c1 [PKL-A160]	14.9%	26.4%	56.4%	–	–	–
N#Cc1c(NC(=O)c2cccc3ccccc23)sc2c1CCN(C(=O)Nc1cccc3ccccc13)C2 [PKL-A161]	13.2%	29.8%	44.1%	–	–	–
CN(C(=O)N1CCc2c(sc(NC(=O)c3cccc4ccccc34)c2C#N)C1)c1ccccc1 [PKL-A162]	12.3%	25.1%	49.2%	–	low ratio between TAG content and cell viability	25.1%
CCN(C)C(=O)N1CCc2c(sc(NC(=O)c3cccc4ccccc34)c2C#N)C1 [PKL-A163]	12.7%	27.2%	46.6%	–	–	–
N#Cc1c(NC(=O)c2cccc3ccccc23)sc2c1CCN(C(=O)N(c1ccccc1)c1ccccc1)C2 [PKL-A164]	17.3%	37.6%	46%	–	–	–
COc1ccc(S(=O)(=O)N2CCc3c(sc(NC(=O)c4cccc5ccccc45)c3C#N)C2)cc1OC [PKL-A179]	34.7%	52.2%	66.5%	–	–	–
N#Cc1c(NC(=O)c2cccc3ccccc23)sc2c1CCN(S(=O)(=O)c1cccc3ccccc13)C2 [PKL-A183]	48.6%	67.2%	72.3%	–	–	–
C=CC(=O)N1CCc2c(sc(NC(=O)c3cccc4ccccc34)c2C#N)C1 [PKL-A190]	24.2%	31.8%	76.2%	–	–	–
N#Cc1c(NC(=O)c2cccc3ccccc23)sc2c1CCN(C(=O)c1cccc(F)c1)C2 [PKL-A192]	22.9%	38%	60.1%	–	–	–
N#Cc1ccc(C(=O)N2CCc3c(sc(NC(=O)c4cccc5ccccc45)c3C#N)C2)cc1 [PKL-A193]	23.4%	37.6%	62.3%	–	–	–
C=CCN1CCc2c(sc(NC(=O)c3cccc4ccccc34)c2C#N)C1 [PKL-B129]	35.5%	49.9%	71.2%	–	–	–
N#Cc1c(NC(=O)c2cccc3ccccc23)sc2c1CCN(CC(=O)c1ccccc1)C2 [PKL-B130]	16.8%	26.2%	64.1%	–	–	–
CC(C)CCN1CCc2c(sc(NC(=O)c3cccc4ccccc34)c2C#N)C1 [PKL-B133]	28.1%	40.6%	69.3%	–	–	–
N#Cc1c(NC(=O)c2cccc3ccccc23)sc2c1CCN(CCn1cnc3ccccc31)C2 [PKL-B153, N-(6-(2-(1H-benzo[d]imidazol-1-yl)ethyl)-3-cyano-4,5,6,7-tetrahydrothieno[2,3c]pyridin-2-yl)-1-naphthamide]	34.3%	46.4%	74%	–	–	–
N#Cc1c(NC(=O)c2cccc3ccccc23)sc2c1CCN(CC(=O)NC1CCOCC1)C2 [PKL-B164]	36.8%	49.6%	74.1%	–	–	–
C#Cc1cccc(NC(=O)CN2CCc3c(sc(NC(=O)c4cccc5ccccc45)c3C#N)C2)c1 [PKL-B170]	55.6%	84.2%	66%	–	–	–
N#Cc1c(NC(=O)c2cccc3ccccc23)sc2c1CCN(CC(=O)Nc1ccccc1)C2 [PKL-B173]	34.7%	49%	70.8%	–	–	–

Reference: US20260234159A1, “SMALL MOLECULE TREATMENT OF FATTY LIVER DISEASE AND HCC” (SCANDIEDGE THERAPEUTICS AB, priority 2023, published 2026)
